What all share (type): cell-based
The target in experiment [1] is T1, human GIP receptor (Homo sapiens, UniProt P48546).
T1 sequence (P48546 22-466): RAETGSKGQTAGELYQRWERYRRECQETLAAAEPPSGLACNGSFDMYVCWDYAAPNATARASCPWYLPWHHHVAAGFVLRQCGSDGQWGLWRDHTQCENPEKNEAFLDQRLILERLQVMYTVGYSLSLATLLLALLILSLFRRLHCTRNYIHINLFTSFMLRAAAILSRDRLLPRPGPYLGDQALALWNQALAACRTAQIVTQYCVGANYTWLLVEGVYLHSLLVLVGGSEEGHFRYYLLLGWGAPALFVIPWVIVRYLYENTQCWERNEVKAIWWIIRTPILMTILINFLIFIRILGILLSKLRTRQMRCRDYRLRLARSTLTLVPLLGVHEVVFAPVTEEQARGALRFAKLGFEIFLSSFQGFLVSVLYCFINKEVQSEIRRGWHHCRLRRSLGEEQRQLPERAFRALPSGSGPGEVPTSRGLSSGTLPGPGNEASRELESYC
Briefly: cAMP agonism (CisBio cAMP Dynamic 2 HTRF assay). To be noted: HEK293, read-out: cAMP agonism, % Efficacy, Table 1C, HEK-293 cells. The method, then: To test for agonistic properties at the GIP receptor, compounds were diluted and added to cells as described above and incubated for 30 min at 37° C. The resulting increase in intracellular cAMP was determined using the CisBio cAMP Dynamic 2 HTRF Assay Kit as described above.

Experiment [2] deals with T1, human GIP receptor. Briefly: cAMP antagonism (CisBio cAMP Dynamic 2 HTRF assay). Further details: pCMV-Script vector. Particulars: Table 1C, CisBio, HEK-293 cells; for IC50: cAMP antagonism, nM (IC50), agonist GIP1-42 at EC50. An outline of the steps:
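Four-parameter fits of cAMP dose-response gave pIC50. cAMP fall was quantified by HTRF competition, ratio 665/620 nm after 60 min at room temperature, against a cAMP standard curve.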

For experiment [3], the target named is T1, human GIP receptor. Briefly: cAMP accumulation, antagonism (DiscoveRx HitHunter cAMP XS assay). Further details: host or cells: COS-7 (transient, calcium phosphate; pCMV-Script vector). Particulars: Table 1B, DiscoveRx; for cAMP antagonism, % inhib: COS-7 cells, % inhibition of Emax; for IC50: cAMP antagonism, nM (IC50), transiently transfected COS-7 cells. The method, then:
Transient transfected COS-7 cells expressing the human GIP receptor were seeded in white 96-well plates with a density of 3.5*10^4/well. The day after, the cells were washed twice with Hepes buffered saline (HBS) buffer and incubated with HBS and 1 mM 3-isobutyl-1-methylxanthine (IBMX) for 30 min at 37° C. To test for agonistic properties, ligands were added and incubated for 30 min at 37° C. In order to test for antagonistic properties, the cells were preincubated with the antagonists for 10 min prior to the addition of the agonist and subsequent incubated for 20 additional min. The HitHunter™ cAMP XS assay (DiscoveRx) was carried out according to the manufacturer's instructions.
In order to develop a GIP receptor antagonist with improved antagonistic properties, individual amino acid substitutions were conducted on GIP(3-30)NH2 and in particular at positions: 16, 18, 30 or 3, 16, 18, 30. The obtained peptides were lipidated at position 18 directly or via a linker. Both the agonistic and antagonistic profiles of the compounds were tested in cAMP accumulation experiments done in transiently transfected COS-7 cells expressing the human GIP receptor. To investigate if these mutated analogues still retained their antagonistic properties, their ability to inhibit a GIP-mediated cAMP response corresponding to 50-80% of maximum activation was examined.

The target of experiment [4] is T1, human GIP receptor. Briefly: cAMP accumulation, agonism (DiscoveRx HitHunter cAMP XS assay). To be noted: for cAMP agonism, Emax: Table 1B, DiscoveRx, COS-7 cells; for Emax: COS-7, read-out: cAMP agonism, Emax. The arrangement: host or cells: COS-7 (transient, calcium phosphate; pCMV-Script vector). An outline of the steps: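 cAMP accumulation measured by HitHunter cAMP XS in COS-7 cells transiently expressing human GIP receptor, after 30 min in HBS with 1 mM IBMX at 37 °C. Antagonists preincubated 10 min before GIP giving 50-80% of maximum, then 20 min more; agonist mode used 30 min ligand exposure.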

*1 amine or outer side, *2 acyl side, *3 side chain or, on linkers, in order; H or OH if unused. Where a SMILES comes first, the peptide text is derived from it. Side-chain parts run from the residue outwards. The star is where a group is joined. C18 diacid = O=C(O)CCCCCCCCCCCCCCCCC(=O)*; C16 diacid = O=C(O)CCCCCCCCCCCCCCC(=O)*; γGlu = O=C(O)[C@H](CCC(=O)[*:2])N[*:1]; AEEA = NCCOCCOCC(=O)O

Turning to `CC[C@H](C)[C@H](NC(=O)[C@H](CO)NC(=O)[C@H](Cc1ccc(O)cc1)NC(=O)[C@H](CC(=O)O)NC(=O)[C@H](CO)NC(=O)[C@@H](NC(=O)[C@H](Cc1ccccc1)NC(=O)[C@@H](NC(=O)CNC(=O)[C@@H](N)CO)[C@@H](C)O)[C@@H](C)CC)C(=O)N[C@@H](C)C(=O)N[C@@H](CCSC)C(=O)N[C@@H](CC(=O)O)C(=O)N[C@@H](CCCNC(=N)N)C(=O)N[C@H](C(=O)N[C@@H](CCCCNC(=O)COCCOCCNC(=O)CC[C@H](NC(=O)CCCCCCCCCCCCCCC(=O)O)C(=O)O)C(=O)N[C@@H](CCC(N)=O)C(=O)N[C@@H](CCC(N)=O)C(=O)N[C@@H](CC(=O)O)C(=O)N[C@@H](Cc1ccccc1)C(=O)N[C@H](C(=O)N[C@@H](CC(N)=O)C(=O)N[C@@H](Cc1c[nH]c2ccccc12)C(=O)N[C@@H](CC(C)C)C(=O)N[C@@H](CC(C)C)C(=O)N[C@@H](C)C(=O)N[C@@H](CCC(N)=O)C(=O)N[C@@H](CCCNC(=N)N)C(N)=O)C(C)C)[C@@H](C)CC` [AT510] (HELM PEPTIDE1{S.G.T.F.I.S.D.Y.S.I.A.M.D.R.I.K.Q.Q.D.F.V.N.W.L.L.A.Q.R.[am]}|PEPTIDE2{[O=C(O)CCCCCCCCCCCCCCC(=O)[*:2]].[gGlu].[O=C(COCCOCCN[*:1])[*:2]]}$PEPTIDE1,PEPTIDE2,16:R3-3:R2$$$V2.0; N-terminus assumed), the Emax in experiment [1] is 2%. Moreover, in experiment [2], the “cAMP antagonism, % inhib” value was determined as 87% and the IC50 was determined as 58.4 nM. Besides, the “cAMP antagonism, % inhib” value in experiment [3] is recorded as 100%. Besides, the “cAMP agonism, Emax” value in experiment [4] is “No Agonism”.

Take `CC[C@H](C)[C@H](NC(=O)[C@H](CO)NC(=O)[C@H](Cc1ccc(O)cc1)NC(=O)[C@H](CC(=O)O)NC(=O)[C@H](CO)NC(=O)[C@@H](NC(=O)[C@H](Cc1ccccc1)NC(=O)[C@@H](NC(=O)CNC(=O)CN)[C@@H](C)O)[C@@H](C)CC)C(=O)N[C@@H](C)C(=O)N[C@@H](CCSC)C(=O)N[C@@H](CC(=O)O)C(=O)N[C@@H](CCCNC(=N)N)C(=O)N[C@H](C(=O)N[C@@H](CCCCNC(=O)CC[C@H](NC(=O)CCCCCCCCCCCCCCC(=O)O)C(=O)O)C(=O)N[C@@H](CCC(N)=O)C(=O)N[C@@H](CCC(N)=O)C(=O)N[C@@H](CC(=O)O)C(=O)N[C@@H](Cc1ccccc1)C(=O)N[C@H](C(=O)N[C@@H](CC(N)=O)C(=O)N[C@@H](Cc1c[nH]c2ccccc12)C(=O)N[C@@H](CC(C)C)C(=O)N[C@@H](CC(C)C)C(=O)N[C@@H](C)C(=O)N[C@@H](CCC(N)=O)C(=O)N[C@@H](CCCNC(=N)N)C(N)=O)C(C)C)[C@@H](C)CC` [AT502] (HELM PEPTIDE1{G.G.T.F.I.S.D.Y.S.I.A.M.D.R.I.K.Q.Q.D.F.V.N.W.L.L.A.Q.R.[am]}|PEPTIDE2{[O=C(O)CCCCCCCCCCCCCCC(=O)[*:2]].[gGlu]}$PEPTIDE1,PEPTIDE2,16:R3-2:R2$$$V2.0; N-terminus assumed): the Emax in experiment [1] came to 13%; in experiment [4], 5%. The “cAMP antagonism, % inhib” value is listed as 65% in experiment [2] and 85% in experiment [3]. The IC50 in experiment [3] was 52 nM.

In the case of `CC[C@H](C)[C@H](NC(=O)[C@H](CO)NC(=O)[C@H](Cc1ccc(O)cc1)NC(=O)[C@H](CC(=O)O)NC(=O)[C@H](CO)NC(=O)[C@@H](NC(=O)[C@H](Cc1ccccc1)NC(=O)[C@@H](NC(=O)CNC(=O)CN)[C@@H](C)O)[C@@H](C)CC)C(=O)N[C@@H](C)C(=O)N[C@@H](CCSC)C(=O)N[C@@H](CC(=O)O)C(=O)N[C@@H](CCCNC(=N)N)C(=O)N[C@H](C(=O)N[C@@H](CCCCNC(=O)COCCOCCNC(=O)COCCOCCNC(=O)CC[C@H](NC(=O)CCCCCCCCCCCCCCC(=O)O)C(=O)O)C(=O)N[C@@H](CCC(N)=O)C(=O)N[C@@H](CCC(N)=O)C(=O)N[C@@H](CC(=O)O)C(=O)N[C@@H](Cc1ccccc1)C(=O)N[C@H](C(=O)N[C@@H](CC(N)=O)C(=O)N[C@@H](Cc1c[nH]c2ccccc12)C(=O)N[C@@H](CC(C)C)C(=O)N[C@@H](CC(C)C)C(=O)N[C@@H](C)C(=O)N[C@@H](CCC(N)=O)C(=O)N[C@@H](CCCNC(=N)N)C(=O)O)C(C)C)[C@@H](C)CC` [AT275] (H-GGTFISDYSIAMDRIK([AEEA-AEEA-γGlu-C16 diacid])QQDFVNWLLAQR-OH; N-terminus assumed), the Emax in experiment [1] and in experiment [4] was 5% each time. Besides, the “cAMP antagonism, % inhib” value in experiment [2] is recorded as 66%. Also, the values for the IC50 in experiment [2] and in experiment [3] were 126 nM and 43 nM, respectively.

Regarding `CC[C@H](C)[C@H](NC(=O)[C@H](CO)NC(=O)[C@H](Cc1ccc(O)cc1)NC(=O)[C@H](CC(=O)O)NC(=O)[C@H](CO)NC(=O)[C@@H](NC(=O)[C@H](Cc1ccccc1)NC(=O)[C@@H](NC(=O)CNC(=O)[C@@H](N)CCC(=O)O)[C@@H](C)O)[C@@H](C)CC)C(=O)N[C@@H](C)C(=O)N[C@@H](CCSC)C(=O)N[C@@H](CC(=O)O)C(=O)N[C@@H](CCCNC(=N)N)C(=O)N[C@H](C(=O)N[C@@H](CCCCNC(=O)COCCOCCNC(=O)COCCOCCNC(=O)COCCOCCNC(=O)CC[C@H](NC(=O)CCCCCCCCCCCCCCCCC(=O)O)C(=O)O)C(=O)N[C@@H](CCC(N)=O)C(=O)N[C@@H](CCC(N)=O)C(=O)N[C@@H](CC(=O)O)C(=O)N[C@@H](Cc1ccccc1)C(=O)N[C@H](C(=O)N[C@@H](CC(N)=O)C(=O)N[C@@H](Cc1c[nH]c2ccccc12)C(=O)N[C@@H](CC(C)C)C(=O)N[C@@H](CC(C)C)C(=O)N[C@@H](C)C(=O)N[C@@H](CCC(N)=O)C(=O)N[C@@H](CCCNC(=N)N)C(N)=O)C(C)C)[C@@H](C)CC` [AT378] (H-EGTFISDYSIAMDRIK([AEEA-AEEA-AEEA-γGlu-C18 diacid])QQDFVNWLLAQR-NH2; N-terminus assumed), the Emax in experiment [1] was 0%. The “cAMP antagonism, % inhib” value in experiment [2] is recorded as 90%. In experiment [3], the “cAMP antagonism, % inhib” value was determined as 92% and the IC50 turned out to be 16 nM. Also, in experiment [4], the “cAMP agonism, Emax” value is “No Agonism”.

`CC[C@H](C)[C@H](NC(=O)[C@H](CO)NC(=O)[C@H](Cc1ccc(O)cc1)NC(=O)[C@H](CC(=O)O)NC(=O)[C@H](CO)NC(=O)[C@@H](NC(=O)[C@H](Cc1ccccc1)NC(=O)[C@@H](NC(=O)CNC(=O)CN)[C@@H](C)O)[C@@H](C)CC)C(=O)N[C@@H](C)C(=O)N[C@@H](CCSC)C(=O)N[C@@H](CC(=O)O)C(=O)N[C@@H](CCCNC(=N)N)C(=O)N[C@H](C(=O)N[C@@H](CCCCNC(=O)COCCOCCNC(=O)COCCOCCNC(=O)CC[C@H](NC(=O)CCCCCCCCCCCCCCC(=O)O)C(=O)O)C(=O)N[C@@H](CCC(N)=O)C(=O)N[C@@H](CCC(N)=O)C(=O)N[C@@H](CC(=O)O)C(=O)N[C@@H](Cc1ccccc1)C(=O)N[C@H](C(=O)N[C@@H](CC(N)=O)C(=O)N[C@@H](Cc1c[nH]c2ccccc12)C(=O)N[C@@H](CC(C)C)C(=O)N[C@@H](CC(C)C)C(=O)N[C@@H](C)C(=O)N[C@@H](CCC(N)=O)C(=O)N[C@@H](CCCNC(=N)N)C(N)=O)C(C)C)[C@@H](C)CC` [AT514] (H-GGTFISDYSIAMDRIK([AEEA-AEEA-γGlu-C16 diacid])QQDFVNWLLAQR-NH2; N-terminus assumed): the Emax in experiment [1] came out at 0%. Besides, in experiment [2], the “cAMP antagonism, % inhib” value was 86% and the IC50 amounted to 31.6 nM. In addition, the “cAMP antagonism, % inhib” value in experiment [3] is given as 80%. In experiment [4], the “cAMP agonism, Emax” value is listed as “No Agonism”.

The values are drawn from patent publication US12187773B2, “Modified GIP peptide analogues” (Antag Therapeutics ApS, priority 2018, dated 2025).
